# Reference: patent US20080038728A1, “Quadruple Transformed Cell Line Useful for the Identification of Transport Inhibitors” (priority 2004, published 2008)
# Experiments:
# OATP1B3 [1] = target: T1, OATP1B3 (Homo sapiens, UniProt Q9NPD5); conditions: BSP uptake, background section; cited from earlier work
# T1 sequence (Q9NPD5 1-702): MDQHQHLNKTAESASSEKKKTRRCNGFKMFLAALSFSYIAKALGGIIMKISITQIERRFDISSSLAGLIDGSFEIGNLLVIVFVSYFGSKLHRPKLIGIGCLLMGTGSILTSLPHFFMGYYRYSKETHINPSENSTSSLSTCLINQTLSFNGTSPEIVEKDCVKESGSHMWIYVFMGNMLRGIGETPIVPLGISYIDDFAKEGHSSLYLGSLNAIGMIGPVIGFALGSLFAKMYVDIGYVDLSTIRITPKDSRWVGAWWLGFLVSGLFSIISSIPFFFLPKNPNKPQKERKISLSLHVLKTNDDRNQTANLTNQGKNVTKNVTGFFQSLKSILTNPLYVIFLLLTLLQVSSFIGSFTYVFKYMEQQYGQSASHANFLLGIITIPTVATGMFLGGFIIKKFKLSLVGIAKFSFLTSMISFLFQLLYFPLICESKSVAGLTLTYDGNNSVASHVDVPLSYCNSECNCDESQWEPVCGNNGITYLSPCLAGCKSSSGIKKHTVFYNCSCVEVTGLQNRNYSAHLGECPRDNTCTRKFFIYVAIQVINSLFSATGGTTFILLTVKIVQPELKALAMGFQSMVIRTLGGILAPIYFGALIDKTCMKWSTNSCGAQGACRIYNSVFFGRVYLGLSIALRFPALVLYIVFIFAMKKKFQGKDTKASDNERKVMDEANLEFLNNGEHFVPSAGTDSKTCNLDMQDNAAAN
# OATP1B3 [2] = target: T1, OATP1B3; test: Uptake (intracellular accumulation) kinetics in ABCC2/OATP1B3 double-transfected MDCKII cells; assay type: in vitro ADME; set-up: expressed in transfected cells; host or cells: MDCKII (canine kidney), co-expressing ABCC2
# Experimental: (a) MDCKII cells were grown on ThinCerts (24-mm diameter, pore size 0.4 μm, pore density 1×10^8 per cm^2) and induced with butyrate as mentioned above. The cells were washed in prewarmed (37° C.) transport buffer (142 mM NaCl, 5 mM KCl, 1 mM KH2PO4, 1.2 mM MgSO4, 1.5 mM CaCl2, 5 mM glucose, and 12.5 mM HEPES, pH 7.3). The ^3H-labeled substrate was dissolved in transport buffer and added either to the apical or to the basolateral compartment at the concentration indicated. After incubation at 37° C., the radioactivity in the opposite compartment was measured by sampling aliquots from the apical or basolateral compartment. Cells were washed 2 times with ice-cold transport buffer containing 0.5% bovine serum albumin and 3 times in ice-cold transport buffer. Intracellular accumulation of radioactivity was calculated by lyzing the cells with 0.2% sodium dodecyl sulfate (SDS) and measuring the radioactivity in the lysate.
structure (smiles),measurement,setting,value
O=C1OC(c2ccc(O)c(S(=O)(=O)O)c2)(c2ccc(O)c(S(=O)(=O)O)c2)c2c(Br)c(Br)c(Br)c(Br)c21 [Bromosulfophthalein],Km,OATP1B3 [1],3.4 µM
same,Vmax,"OATP1B3 [2]; cell line ABCC2-OATP1B3, intracellular accumulation of 3H-labeled substrate",82.7 ± 4.0 pmol · mg protein^−1 · min^−1
same,Km at 5 min,"OATP1B3 [2]; human, pH 7.3",2.2 µM
